# Source: the supplement of paper PMC10307832
# How the values were obtained:
# Experiment in all cases: relative viability (nuclei count vs DMSO), 5 days (fraction); higher = more cells survive
# [1] = test system: 201T
# How it was run: (§1)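 A single step with final 0.05% Triton X-100, 1% formaldehyde and 1 ug/ml Hoechst fixed the cells and stained nuclei 5 days after treatment. Lung cancer cell lines in 1536-well plates had been treated by pin tool the day after seeding with one drug alone or a fixed anchor-drug dose plus five library-drug doses (not always all listed) in √10 steps, and nuclei were counted on 4× images. Relative viability is the ratio of nuclei in treated wells to nuclei in vehicle wells, taken as the median of duplicate plates.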
# [2] = test system: BEN
# How it was run: as §1
# [3] = test system: EMC-BAC-2
# How it was run: as §1
# [4] = test system: HARA
# How it was run: as §1
# [5] = test system: HCC-44
# How it was run: as §1
# [6] = test system: LCLC-103H
# How it was run: as §1
# [7] = test system: LOU-NH91
# How it was run: as §1
# [8] = test system: NCI-H1395
# How it was run: as §1
# [9] = test system: NCI-H1666
# How it was run: as §1
# [10] = test system: NCI-H1993
# How it was run: as §1
# [11] = test system: NCI-H2009
# How it was run: as §1
# [12] = test system: NCI-H2023
# How it was run: as §1
# [13] = test system: NCI-H2087
# How it was run: as §1
# [14] = test system: NCI-H2126
# How it was run: as §1
# [15] = test system: NCI-H2347
# How it was run: as §1
# [16] = test system: NCI-H23
# How it was run: as §1
# [17] = test system: NCI-H3122
# How it was run: as §1
# [18] = test system: NCI-H441
# How it was run: as §1
# [19] = test system: NCI-H596
# How it was run: as §1
# [20] = test system: NCI-H647
# How it was run: as §1
# [21] = test system: NCI-H650
# How it was run: as §1
# [22] = test system: NCI-H727
# How it was run: as §1
# [23] = test system: NCI-H838
# How it was run: as §1
structure (smiles),measurement,setting,value
O=C(O)c1ccc(-c2c[nH]c3ncc(-c4ccccc4)cc23)cc1C1CCCC1 + Cc1nc(NC(=O)N2CCC[C@H]2C(N)=O)sc1-c1ccnc(C(C)(C)C(F)(F)F)c1 [Alpelisib] (partner 2 µM),relative viability,[1]; first compound 0.04 µM,1.01
same,relative viability,[1]; first compound 0.1265 µM,1
same,relative viability,[1]; first compound 0.4 µM,0.993
same,relative viability,[1]; first compound 1.265 µM,0.935
same,relative viability,[2]; first compound 0.04 µM,1.28
same,relative viability,[2]; first compound 0.1265 µM,1.07
same,relative viability,[2]; first compound 0.4 µM,1.01
same,relative viability,[2]; first compound 1.265 µM,0.913
same,relative viability,[3]; first compound 0.04 µM,0.739
same,relative viability,[3]; first compound 0.1265 µM,0.782
same,relative viability,[3]; first compound 0.4 µM,0.719
same,relative viability,[3]; first compound 1.265 µM,0.713
same,relative viability,[4]; first compound 0.04 µM,0.775
same,relative viability,[4]; first compound 0.1265 µM,0.988
same,relative viability,[4]; first compound 0.4 µM,0.812
same,relative viability,[4]; first compound 1.265 µM,0.707
same,relative viability,[5]; first compound 0.04 µM,0.889
same,relative viability,[5]; first compound 0.1265 µM,0.813
same,relative viability,[5]; first compound 0.4 µM,0.848
same,relative viability,[5]; first compound 1.265 µM,0.477
same,relative viability,[6]; first compound 0.04 µM,1.01
same,relative viability,[6]; first compound 0.1265 µM,1.02
same,relative viability,[6]; first compound 0.4 µM,1.08
same,relative viability,[6]; first compound 1.265 µM,0.984
same,relative viability,[7]; first compound 0.04 µM,0.756
same,relative viability,[7]; first compound 0.1265 µM,0.803
same,relative viability,[7]; first compound 0.4 µM,0.68
same,relative viability,[7]; first compound 1.265 µM,0.608
same,relative viability,[8]; first compound 0.04 µM,1.35
same,relative viability,[8]; first compound 0.1265 µM,1.01
same,relative viability,[8]; first compound 0.4 µM,1.1
same,relative viability,[8]; first compound 1.265 µM,0.769
same,relative viability,[9]; first compound 0.04 µM,0.965
same,relative viability,[9]; first compound 0.1265 µM,0.897
same,relative viability,[9]; first compound 0.4 µM,0.892
same,relative viability,[9]; first compound 1.265 µM,0.367
same,relative viability,[10]; first compound 0.04 µM,0.656
same,relative viability,[10]; first compound 0.4 µM,0.68
same,relative viability,[10]; first compound 1.265 µM,0.594
same,relative viability,[11]; first compound 0.04 µM,1.17
same,relative viability,[11]; first compound 0.1265 µM,1.16
same,relative viability,[11]; first compound 0.4 µM,1.09
same,relative viability,[11]; first compound 1.265 µM,0.955
same,relative viability,[12]; first compound 0.04 µM,0.629
same,relative viability,[12]; first compound 0.1265 µM,0.65
same,relative viability,[12]; first compound 0.4 µM,0.583
same,relative viability,[12]; first compound 1.265 µM,0.529
same,relative viability,[13]; first compound 0.04 µM,1.01
same,relative viability,[13]; first compound 0.1265 µM,1.06
same,relative viability,[13]; first compound 0.4 µM,1.08
same,relative viability,[13]; first compound 1.265 µM,0.844
same,relative viability,[14]; first compound 0.04 µM,0.787
same,relative viability,[14]; first compound 0.1265 µM,0.76
same,relative viability,[14]; first compound 0.4 µM,0.696
same,relative viability,[14]; first compound 1.265 µM,0.629
same,relative viability,[15]; first compound 0.04 µM,1.12
same,relative viability,[15]; first compound 0.1265 µM,1.13
same,relative viability,[15]; first compound 0.4 µM,1.11
same,relative viability,[15]; first compound 1.265 µM,0.81
same,relative viability,[16]; first compound 0.04 µM,0.61
same,relative viability,[16]; first compound 0.1265 µM,0.852
same,relative viability,[16]; first compound 0.4 µM,0.672
same,relative viability,[16]; first compound 1.265 µM,0.423
same,relative viability,[17]; first compound 0.04 µM,0.724
same,relative viability,[17]; first compound 0.1265 µM,0.825
same,relative viability,[17]; first compound 0.4 µM,0.752
same,relative viability,[17]; first compound 1.265 µM,0.617
same,relative viability,[18]; first compound 0.04 µM,0.707
same,relative viability,[18]; first compound 0.1265 µM,0.692
same,relative viability,[18]; first compound 0.4 µM,0.759
same,relative viability,[18]; first compound 1.265 µM,0.382
same,relative viability,[19]; first compound 0.04 µM,0.492
same,relative viability,[19]; first compound 0.1265 µM,0.427
same,relative viability,[19]; first compound 0.4 µM,0.484
same,relative viability,[19]; first compound 1.265 µM,0.402
same,relative viability,[20]; first compound 0.04 µM,1.14
same,relative viability,[20]; first compound 0.1265 µM,1.24
same,relative viability,[20]; first compound 0.4 µM,1.02
same,relative viability,[20]; first compound 1.265 µM,0.766
same,relative viability,[21]; first compound 0.04 µM,1.19
same,relative viability,[21]; first compound 0.1265 µM,1.13
same,relative viability,[21]; first compound 0.4 µM,0.928
same,relative viability,[21]; first compound 1.265 µM,0.737
same,relative viability,[22]; first compound 0.04 µM,0.545
same,relative viability,[22]; first compound 0.1265 µM,0.629
same,relative viability,[22]; first compound 0.4 µM,0.7
same,relative viability,[22]; first compound 1.265 µM,0.49
same,relative viability,[23]; first compound 0.04 µM,1.08
same,relative viability,[23]; first compound 0.1265 µM,1.13
same,relative viability,[23]; first compound 0.4 µM,1.11
same,relative viability,[23]; first compound 1.265 µM,1.02
